Results published in ChEMBL document CHEMBL1126058, “Development of potent and selective CCK-A receptor agonists from Boc-CCK-4: tetrapeptides containing Lys(N epsilon)-amide residues” (J Med Chem, 1992).
Where a SMILES comes first, the peptide text is derived from it. [ ]: non-standard residue; d: D form. The star is where a group is joined. X23 = O=C(/C=C/c1ccc(OS(=O)(=O)O)cc1)*; X28 = O=C(/C=C\c1cccc(OS(=O)(=O)O)c1)*; X22 = O=C(CCc1cccc(OS(=O)(=O)O)c1)*; X24 = O=C(/C=C/c1c[nH]c2ccccc12)*; X26 = O=C(/C=C\c1ccc(Cl)c(Cl)c1)*; NMeF = CN[C@@H](Cc1ccccc1)C(=O)O; X30 = O=C(CCc1ccc(C(F)(F)F)cc1)*; X31 = COc1ccc(/C=C\C(=O)*)cc1OC; X25 = COc1ccc(/C=C\C(=O)*)cc1; X33 = O=C(/C=C/c1ccc(Cl)cc1)*; X29 = O=C(/C=C\c1cccc(O)c1)*; X32 = Cc1ccc(/C=C\C(=O)*)cc1; X27 = O=C(Cc1ccc(O)cc1)*; Boc = CC(C)(C)OC(=O)*

Experiments:
[1] = target: T1, Cholecystokinin receptor type A (Cavia porcellus, UniProt Q63931); test: Inhibition of specific binding of [125I]BH-CCK-8 in guinea pig pancreas.
T1 sequence (Q63931 whole entry): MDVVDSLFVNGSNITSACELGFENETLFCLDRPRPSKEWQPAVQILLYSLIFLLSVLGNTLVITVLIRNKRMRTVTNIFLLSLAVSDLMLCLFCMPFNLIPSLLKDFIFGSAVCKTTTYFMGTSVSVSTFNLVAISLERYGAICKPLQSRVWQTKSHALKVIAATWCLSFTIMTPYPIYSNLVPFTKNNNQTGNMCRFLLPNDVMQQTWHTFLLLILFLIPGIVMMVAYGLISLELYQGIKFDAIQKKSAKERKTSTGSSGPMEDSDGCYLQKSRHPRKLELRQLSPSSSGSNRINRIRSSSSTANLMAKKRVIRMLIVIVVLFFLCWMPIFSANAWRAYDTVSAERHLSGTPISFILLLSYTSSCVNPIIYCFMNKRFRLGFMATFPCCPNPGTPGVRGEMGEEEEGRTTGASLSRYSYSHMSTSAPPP

Cavia porcellus [2] = organism: Cavia porcellus; test: Stimulation of amylase release in guinea pig pancreas; format: functional
Cavia porcellus [3] = organism: Cavia porcellus; test: Hydrolysis of phosphoinositide (PI) relative to maximal response elicited by CCK-8 in guinea pig pancreas.; format: functional

| Compound | IC50 [1] [nM] | EC50 (Cavia porcellus [2]) [nM] | Max (Cavia porcellus [3]) [%] |
| --- | --- | --- | --- |
| CC(C)(C)OC(=O)N[C@@H](Cc1c[nH]c2ccccc12)C(=O)N[C@@H](CCCCNC(=O)CCc1cccc(OS(=O)(=O)O)c1)C(=O)N[C@@H](CC(=O)O)C(=O)N[C@@H](Cc1ccccc1)C(N)=O (Boc-WK(X22)DF-NH2) | 180 | 69 | 50 |
| CN(C(=O)[C@H](CC(=O)O)NC(=O)[C@H](CCCCNC(=O)/C=C/c1ccc(OS(=O)(=O)O)cc1)NC(=O)[C@H](Cc1c[nH]c2ccccc12)NC(=O)OC(C)(C)C)[C@@H](Cc1ccccc1)C(N)=O (Boc-WK(X23)D[NMeF]-NH2) | 22 | 2.9 | 74 |
| CC(C)(C)OC(=O)N[C@@H](Cc1c[nH]c2ccccc12)C(=O)N[C@@H](CCCCNC(=O)/C=C/c1c[nH]c2ccccc12)C(=O)N[C@@H](CC(=O)O)C(=O)N[C@@H](Cc1ccccc1)C(N)=O (Boc-WK(X24)DF-NH2) | 19 | 30 | 55 |
| COc1ccc(/C=C\C(=O)NCCCC[C@H](NC(=O)[C@H](Cc2c[nH]c3ccccc23)NC(=O)OC(C)(C)C)C(=O)N[C@@H](CC(=O)O)C(=O)N[C@@H](Cc2ccccc2)C(N)=O)cc1 (Boc-WK(X25)DF-NH2) | 30 | 20 | 72 |
| CC(C)(C)OC(=O)N[C@@H](Cc1c[nH]c2ccccc12)C(=O)N[C@@H](CCCCNC(=O)/C=C\c1ccc(Cl)c(Cl)c1)C(=O)N[C@@H](CC(=O)O)C(=O)N[C@@H](Cc1ccccc1)C(N)=O (Boc-WK(X26)DF-NH2) | 49 | 46 | 62 |
| CC(C)(C)OC(=O)N[C@@H](Cc1c[nH]c2ccccc12)C(=O)N[C@@H](CCCCNC(=O)Cc1ccc(O)cc1)C(=O)N[C@@H](CC(=O)O)C(=O)N[C@@H](Cc1ccccc1)C(N)=O (Boc-WK(X27)DF-NH2) | 1100 | 30000 | 88 |
| CC(C)(C)OC(=O)N[C@@H](Cc1c[nH]c2ccccc12)C(=O)N[C@@H](CCCCNC(=O)/C=C\c1cccc(OS(=O)(=O)O)c1)C(=O)N[C@@H](CC(=O)O)C(=O)N[C@@H](Cc1ccccc1)C(N)=O (Boc-WK(X28)DF-NH2) | 39 | 25 | 70 |
| CC(C)(C)OC(=O)N[C@@H](Cc1c[nH]c2ccccc12)C(=O)N[C@@H](CCCCNC(=O)/C=C\c1cccc(O)c1)C(=O)N[C@@H](CC(=O)O)C(=O)N[C@@H](Cc1ccccc1)C(N)=O (Boc-WK(X29)DF-NH2) | 22 | 59 | 54 |
| CC(C)(C)OC(=O)N[C@@H](Cc1c[nH]c2ccccc12)C(=O)N[C@@H](CCCCNC(=O)CCc1ccc(C(F)(F)F)cc1)C(=O)N[C@@H](CC(=O)O)C(=O)N[C@@H](Cc1ccccc1)C(N)=O (Boc-WK(X30)DF-NH2) | 390 | 30000 | 77 |
| COc1ccc(/C=C\C(=O)NCCCC[C@H](NC(=O)[C@H](Cc2c[nH]c3ccccc23)NC(=O)OC(C)(C)C)C(=O)N[C@@H](CC(=O)O)C(=O)N[C@@H](Cc2ccccc2)C(N)=O)cc1OC (Boc-WK(X31)DF-NH2) | 40 | 17 | 61 |
| Cc1ccc(/C=C\C(=O)NCCCC[C@H](NC(=O)[C@H](Cc2c[nH]c3ccccc23)NC(=O)OC(C)(C)C)C(=O)N[C@@H](CC(=O)O)C(=O)N[C@@H](Cc2ccccc2)C(N)=O)cc1 (Boc-WK(X32)DF-NH2) | 71 | 52 | 71 |
| CN(C(=O)[C@H](CC(=O)O)NC(=O)[C@H](CCCCNC(=O)/C=C/c1ccc(Cl)cc1)NC(=O)[C@H](Cc1c[nH]c2ccccc12)NC(=O)OC(C)(C)C)[C@@H](Cc1ccccc1)C(N)=O (Boc-WK(X33)D[NMeF]-NH2) | 15 | 8.6 | 68 |
